1 compound from ChEMBL document CHEMBL5390253, “Discovery of Selective and Potent Macrocyclic CDK9 Inhibitors for the Treatment of Osimertinib-Resistant Non-Small-Cell Lung Cancer” (J Med Chem, 2023) can be followed below.

Data set [1] is described as follows: Metabolic stability in rat liver microsomes assessed as half life at 10 uM measured at 5 to 60 mins by LC-MS/MS analysis. The format is ADME, Microsome. Conditions: time 5-60 min.
A short description of data set [2]: Antitumor activity against patient derived #0416 lung cancer organoid assessed as inhibition of growth measured after 4 days. The following applies: Homo sapiens, 96 h. The format is functional, tissue-based.
Data set [3] can be described thus: Antiproliferative activity against human Osimertinib-resistant NCI-H1975 cell incubated for 72 hrs by MTT assay. Conditions: NCI-H1975, 72 h. The format is functional, cell-based.
A short description of data set [4]: Toxicity in ICR mouse assessed as morphological changes in lung at 1000 mg/kg, po measured after 9 days by H and E staining based analysis. The format is organism-based. The following applies: in vivo, 216 h, time 9 day.
The nature of data set [5]: Induction of apoptosis in human Osimertinib-resistant NCI-H1975 cell assessed as early apoptotic cells at 2000 nM measured after 16 hrs by Annexin V-FITC and PI staining based analysis (reference value: 1.78%). The data set is classed as functional.
The next data set has as its system NCI-H1975. Briefly: Induction of apoptosis in human Osimertinib-resistant NCI-H1975 cell assessed as increase in percentage of apoptotic cells measured after 16 hrs by Annexin V-FITC and PI staining based analysis. The data set is classed as functional. The following applies: dose 125-2000 nM.
Data set [6] is described as follows: Toxicity in ICR mouse assessed as effect on physical appearance at 100 mg/kg, iv measured for 8 to 9 days. The format is organism-based. The following applies: in vivo, time 8-9 day.
Data set [7] can be described thus: Induction of apoptosis in human Osimertinib-resistant NCI-H1975 cell assessed as viable cells at 125 nM measured after 16 hrs by Annexin V-FITC and PI staining based analysis (reference value: 94.9%). The format is functional. Conditions: read-out: Activity.
For data set [8], the target named is Mitogen-activated protein kinase 15 (Homo sapiens) (UniProt Q8TD08). Description: Inhibition of ERK7 (unknown origin) at 500 nM preincubated for 10 mins followed by substrate addition and measured after 60 mins in presence of ATP by ADP-Glo reagent based assay relative to control. Conditions: time 70.0 min.
Data set [9] can be described thus: Induction of apoptosis in human Osimertinib-resistant NCI-H1975 cell assessed as late apoptotic cells at 500 nM measured after 16 hrs by Annexin V-FITC and PI staining based analysis (reference value: 2.84%). The data set is classed as functional.
A short description of data set [10]: Toxicity in ICR mouse assessed as abnormalities in heart at 1000 mg/kg, po measured after 9 days by H and E staining based analysis. The data set is classed as organism-based. Conditions: in vivo, 216 h, time 9 day.
Data set [11] has as its target Cyclin-dependent kinase 5/CDK5 activator 1 (Homo sapiens) (UniProt Q00535+Q15078). Description: Inhibition of CDK5/p25NCK (unknown origin) at 200 nM preincubated for 10 mins followed by substrate addition and measured after 60 mins in presence of ATP by ADP-Glo reagent based assay relative to control. The data set is classed as protein-complex assay. Conditions: time 70.0 min.

Data set [12] is described as follows: Antiproliferative activity against 3D-cultured human Osimertinib-resistant HCC827 cell incubated for 72 hrs by MTT assay. The following applies: Osimertinib-resistant HCC827AR cell. The data set is classed as functional, cell-based.
For another data set, the system named is NCI-H1299. Description: Antiproliferative activity against human NCI-H1299 cells incubated for 72 hrs by MTT assay. The data set is classed as functional, cell-based. Conditions: NCI-H1299, 72 h.
Data set [13] is described as follows: Antiproliferative activity against human Osimertinib-resistant NCI-H1975 cell assessed as cell growth inhibition incubated for 72 hrs by MTT assay. The format is functional, cell-based. The following applies: NCI-H1975, 72 h.
Data set [14] addresses Interleukin-1 receptor-associated kinase 1 (Homo sapiens) (UniProt P51617). Briefly: Inhibition of IRAK1 (unknown origin) at 500 nM preincubated for 10 mins followed by substrate addition and measured after 60 mins in presence of ATP by ADP-Glo reagent based assay relative to control. The following applies: time 70.0 min.
The nature of data set [15]: Toxicity in ICR mouse assessed as morphological changes in kidney at 1000 mg/kg, po measured after 9 days by H and E staining based analysis. Conditions: in vivo, 216 h, time 9 day. The data set is classed as organism-based.
For another data set, the target named is CYP3A4 (Homo sapiens, UniProt P08684). Briefly: Inhibition of CYP3A4 in human liver microsomes using midazolam as substrate at 10 uM incubated for 5 mins in presence of NADPH by LC-MS/MS analysis relative to control. The data set is classed as ADME, Microsome. The following applies: probe midazolam.
Chain of CYP3A4 (P08684 whole entry): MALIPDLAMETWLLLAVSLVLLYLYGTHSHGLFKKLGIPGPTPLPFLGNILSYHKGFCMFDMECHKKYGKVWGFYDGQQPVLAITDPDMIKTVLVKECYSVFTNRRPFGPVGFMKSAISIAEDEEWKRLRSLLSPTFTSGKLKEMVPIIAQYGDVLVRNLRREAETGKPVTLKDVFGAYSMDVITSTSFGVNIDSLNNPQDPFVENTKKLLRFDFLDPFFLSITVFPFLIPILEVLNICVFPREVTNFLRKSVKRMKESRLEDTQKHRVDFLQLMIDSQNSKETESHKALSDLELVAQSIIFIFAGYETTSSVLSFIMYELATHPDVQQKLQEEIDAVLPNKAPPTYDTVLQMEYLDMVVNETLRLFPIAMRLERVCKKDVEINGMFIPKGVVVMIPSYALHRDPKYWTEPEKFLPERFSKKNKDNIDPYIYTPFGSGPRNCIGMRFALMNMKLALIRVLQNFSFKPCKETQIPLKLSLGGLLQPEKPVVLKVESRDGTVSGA

Chain of Interleukin-1 receptor-associated kinase 1 (Homo sapiens) (P51617 whole entry, looked up): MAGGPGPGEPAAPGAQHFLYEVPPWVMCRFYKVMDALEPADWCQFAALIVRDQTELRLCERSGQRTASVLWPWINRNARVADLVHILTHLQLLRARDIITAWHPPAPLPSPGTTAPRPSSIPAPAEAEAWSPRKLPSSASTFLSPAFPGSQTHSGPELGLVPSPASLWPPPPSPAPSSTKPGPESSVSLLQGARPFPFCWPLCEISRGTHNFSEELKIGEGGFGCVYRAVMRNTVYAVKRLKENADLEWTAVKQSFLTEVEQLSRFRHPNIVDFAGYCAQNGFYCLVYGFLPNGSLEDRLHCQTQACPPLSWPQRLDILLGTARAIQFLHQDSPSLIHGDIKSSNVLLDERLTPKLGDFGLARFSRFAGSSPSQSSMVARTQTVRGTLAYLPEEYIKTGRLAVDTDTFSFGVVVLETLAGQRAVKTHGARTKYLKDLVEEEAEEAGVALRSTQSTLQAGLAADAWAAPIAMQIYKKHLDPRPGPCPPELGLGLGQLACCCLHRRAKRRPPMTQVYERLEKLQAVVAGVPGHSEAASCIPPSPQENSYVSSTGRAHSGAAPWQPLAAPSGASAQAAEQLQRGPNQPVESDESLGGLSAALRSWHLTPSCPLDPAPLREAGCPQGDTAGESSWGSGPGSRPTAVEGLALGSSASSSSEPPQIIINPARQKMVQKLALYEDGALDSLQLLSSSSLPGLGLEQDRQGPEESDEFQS
Chain of Mitogen-activated protein kinase 15 (Homo sapiens) (Q8TD08 whole entry): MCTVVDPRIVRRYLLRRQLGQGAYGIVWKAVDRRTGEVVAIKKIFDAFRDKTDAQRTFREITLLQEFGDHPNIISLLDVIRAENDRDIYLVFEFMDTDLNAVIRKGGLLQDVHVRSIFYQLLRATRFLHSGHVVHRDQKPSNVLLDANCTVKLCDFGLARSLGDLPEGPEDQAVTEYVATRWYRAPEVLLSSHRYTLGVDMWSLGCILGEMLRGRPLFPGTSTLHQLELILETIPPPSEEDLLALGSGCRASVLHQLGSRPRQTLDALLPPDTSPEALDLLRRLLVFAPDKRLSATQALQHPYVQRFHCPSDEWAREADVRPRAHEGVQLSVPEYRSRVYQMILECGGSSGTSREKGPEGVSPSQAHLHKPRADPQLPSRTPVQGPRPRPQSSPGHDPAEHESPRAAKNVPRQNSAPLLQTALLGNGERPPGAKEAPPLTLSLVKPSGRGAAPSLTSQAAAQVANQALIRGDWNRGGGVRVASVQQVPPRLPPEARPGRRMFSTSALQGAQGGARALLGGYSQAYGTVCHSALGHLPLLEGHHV
Chain of Cyclin-dependent kinase 5/CDK5 activator 1 (Homo sapiens) (Q00535 whole entry): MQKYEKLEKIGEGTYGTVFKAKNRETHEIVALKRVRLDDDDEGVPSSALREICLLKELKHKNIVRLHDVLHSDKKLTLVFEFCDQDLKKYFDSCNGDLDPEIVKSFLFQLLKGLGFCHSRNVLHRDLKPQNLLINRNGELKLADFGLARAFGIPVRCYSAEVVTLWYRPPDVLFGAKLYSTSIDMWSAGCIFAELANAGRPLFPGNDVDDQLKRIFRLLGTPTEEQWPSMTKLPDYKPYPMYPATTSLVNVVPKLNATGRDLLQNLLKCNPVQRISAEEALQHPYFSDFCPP
Chain of Cyclin-dependent kinase 5/CDK5 activator 1 (Homo sapiens) (Q15078 99-307 partner limits assumed): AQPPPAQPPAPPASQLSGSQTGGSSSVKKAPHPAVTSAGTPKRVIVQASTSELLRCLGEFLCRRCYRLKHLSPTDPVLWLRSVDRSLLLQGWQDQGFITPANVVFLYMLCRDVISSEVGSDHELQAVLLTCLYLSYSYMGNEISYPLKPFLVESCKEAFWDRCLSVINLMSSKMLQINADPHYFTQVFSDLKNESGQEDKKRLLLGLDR

On to `O=C(NCCN1CCOCC1)c1ccc2cc1OCCCCCCOc1cc(ccc1F)-c1nc(ncc1F)N2`, for which, in data set [1], the half-life at 10 µM is 6.8 min. Besides, the IC50 in data set [2] was 79 nM; in data set [3], 251 nM; in data set [12] it was 330 nM; in the data set with NCI-H1299 it was 85 nM; in data set [13], 190 nM. The Activity entry in [4] was “Non-Toxic”; in data set [5], 18.9%; in the data set with NCI-H1975, “Dose-Dependent Effect”; in data set [6], “Non-Toxic”; in data set [9], 7.02%; in data set [10], “Non-Toxic”. In addition, in data set [15], the Activity result is listed as “Non-Toxic”. Moreover, the viability at 0.125 µM in [7] came out at 88.9%. Further, the results for the inhibition in data set [8], in data set [11] and in data set [14] were 83.5%, 38.9% and 73.5%, respectively. Moreover, the inhibition at 5 min, 10 µM at CYP3A4 is 27.5%.
